Assay results as given in patent US12077503B2, “Substituted cyclic amides and their use as herbicides” (FMC CORPORATION, priority 2015, dated 2024).

Columns and labels:
Type in all cases: in vivo
[1] = system: rice (Oryra sativa); assay: Test B flooded paddy test; conditions: Oryza sativa, 250 g ai/ha, Flood; 0 to 100 scale where 0 is no effect and 100 is complete control; read-out: Rice plant response rating
Summary of the method: (§1)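 Rating scale 0–100 (visual, vs untreated controls) after a 13–15 d greenhouse period; application to the flood layer, 3 cm above soil and maintained; plants at 2-leaf stage when treated.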

[2] = system: barnyardgrass (Echinochloa crus-galli); assay: Test B flooded paddy test; conditions: Echinochloa crus-galli, 250 g ai/ha, Flood; 0 to 100 scale where 0 is no effect and 100 is complete control; read-out: Barnyardgrass plant response rating
Summary of the method: as §1

[3] = system: sedge, umbrella (small-flower umbrella sedge, Cyperus difformis); assay: Test B flooded paddy test; conditions: Cyperus difformis, 250 g ai/ha, Flood; 0 to 100 scale where 0 is no effect and 100 is complete control; read-out: Sedge, Umbrella plant response rating
Summary of the method: as §1

[4] = system: ducksalad (Heteranthera limosa); assay: Test B flooded paddy test; conditions: Heteranthera limosa, 250 g ai/ha, Flood; 0 to 100 scale where 0 is no effect and 100 is complete control; read-out: Ducksalad plant response rating
Summary of the method: as §1

[5] = system: ryegrass, Italian (Italian ryegrass, Lolium multiflorum); assay: Test A preemergence; conditions: Lolium multiflorum, pre-emergence, 240 h, 0 to 100 scale where 0 is no effect and 100 is complete control, read-out: Ryegrass, Italian plant response rating
Summary of the method: (§2)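 Preemergence soil spray on seeded pots or post-emergence spray on 1–2 leaf plants, in loam–sand blend. Greenhouse ~10 d. Visual rating 0–100 against untreated plants.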

[6] = system: Kochia (Kochia scoparia); assay: Test A preemergence; conditions: Bassia scoparia, pre-emergence, 240 h, 0 to 100 scale where 0 is no effect and 100 is complete control, read-out: Kochia plant response rating
Summary of the method: as §2

[7] = system: barnyardgrass (Echinochloa crus-galli); assay: Test A preemergence; conditions: Echinochloa crus-galli, pre-emergence, 240 h, Preemergence
Summary of the method: as §2

[8] = system: pigweed (Amaranthus retroflexus); assay: Test A preemergence; conditions: Amaranthus retroflexus, pre-emergence, 240 h, 0 to 100 scale where 0 is no effect and 100 is complete control, read-out: Pigweed plant response rating
[9] = system: giant foxtail (Setaria faberii); assay: Test A preemergence; conditions: Setaria faberi, pre-emergence, 240 h, Preemergence
Summary of the method: as §2

[10] = system: ragweed (common ragweed, Ambrosia elatior); assay: Test A preemergence; conditions: Ambrosia artemisiifolia, pre-emergence, 240 h, 0 to 100 scale where 0 is no effect and 100 is complete control, read-out: Ragweed plant response rating
Summary of the method: as §2

[11] = system: ryegrass, Italian (Italian ryegrass, Lolium multiflorum); assay: Test A postemergence; conditions: Lolium multiflorum, post-emergence, 240 h
Summary of the method: as §2

[12] = system: corn (Zea mays); assay: Test A postemergence; conditions: Zea mays, post-emergence, 240 h
Summary of the method: as §2

[13] = system: Kochia (Kochia scoparia); assay: Test A postemergence; conditions: Bassia scoparia, post-emergence, 240 h
Summary of the method: as §2

[14] = system: barnyardgrass (Echinochloa crus-galli); assay: Test A postemergence; conditions: Echinochloa crus-galli, post-emergence, 240 h
Summary of the method: as §2

[15] = system: blackgrass (Alopecurus myosuroides); assay: Test A postemergence; conditions: Alopecurus myosuroides, post-emergence, 240 h
Summary of the method: as §2

[16] = system: pigweed (Amaranthus retroflexus); assay: Test A postemergence; conditions: Amaranthus retroflexus, post-emergence, 240 h
Summary of the method: as §2

[17] = system: wheat (Triticum aestivum); assay: Test A postemergence; conditions: Triticum aestivum, post-emergence, 240 h
Summary of the method: as §2

[18] = system: Galium (catchweed bedstraw, Galium aparine); assay: Test A postemergence; conditions: Galium, post-emergence, 240 h
Summary of the method: as §2

[19] = system: giant foxtail (Setaria faberii); assay: Test A postemergence; conditions: Setaria faberi, post-emergence, 240 h
Summary of the method: as §2

[20] = system: ragweed (common ragweed, Ambrosia elatior); assay: Test A postemergence; conditions: Ambrosia artemisiifolia, post-emergence, 240 h
Summary of the method: as §2

[21] = 125 g ai/ha, preemergence, approx. 10 d

Cc1ccc([C@H]2CN(C)C(=O)[C@@H]2C(=O)Nc2cnccc2C(F)(F)F)cc1 [Compound 1067]
0%: pest or weed control at 250 g/ha [1] | pest or weed control at 250 g/ha [3] | pest or weed control at 31 g/ha ([6]; 31 g ai/ha, Preemergence) | pest or weed control at 31 g/ha ([8]; 31 g ai/ha, Preemergence) | pest or weed control at 125 g/ha [8, 21] | pest or weed control at 31 g/ha ([10]; 31 g ai/ha, Preemergence) | pest or weed control at 125 g/ha ([11]; 125 g ai/ha, postemergence, visual injury on 0 to 100 scale (0 no effect, 100 complete control), approx. 10 d, read-out: Ryegrass, Italian plant response rating) | pest or weed control at 31 g/ha ([11]; Postemergence, 31 g ai/ha, visual injury after approx. 10 d, 0 to 100 scale, 0 no effect, 100 complete control, read-out: Plant response rating, Ryegrass, Italian) | plant injury at 125 g/ha ([12]; 125 g ai/ha, postemergence, visual injury on 0 to 100 scale (0 no effect, 100 complete control), approx. 10 d, read-out: Corn plant response rating) | Corn plant response rating (crop injury, 0 = no effect, 100 = complete kill) at 31 g/ha ([12]; Postemergence, 31 g ai/ha, visual injury after approx. 10 d, 0 to 100 scale, 0 no effect, 100 complete control) | pest or weed control at 31 g/ha ([13]; Postemergence, 31 g ai/ha, visual injury after approx. 10 d, 0 to 100 scale, 0 no effect, 100 complete control, read-out: Plant response rating, Kochia) | pest or weed control at 31 g/ha ([15]; Postemergence, 31 g ai/ha, visual injury after approx. 10 d, 0 to 100 scale, 0 no effect, 100 complete control, read-out: Plant response rating, Blackgrass) | pest or weed control at 125 g/ha ([16]; 125 g ai/ha, postemergence, visual injury on 0 to 100 scale (0 no effect, 100 complete control), approx. 10 d, read-out: Pigweed plant response rating) | pest or weed control at 31 g/ha ([16]; Postemergence, 31 g ai/ha, visual injury after approx. 10 d, 0 to 100 scale, 0 no effect, 100 complete control, read-out: Plant response rating, Pigweed) | plant injury at 31 g/ha ([17]; Postemergence, 31 g ai/ha, visual injury after approx. 10 d, 0 to 100 scale, 0 no effect, 100 complete control, read-out: Plant response rating, Wheat) | pest or weed control at 31 g/ha ([18]; Postemergence, 31 g ai/ha, visual injury after approx. 10 d, 0 to 100 scale, 0 no effect, 100 complete control, read-out: Plant response rating, Galium) | pest or weed control at 125 g/ha ([20]; 125 g ai/ha, postemergence, visual injury on 0 to 100 scale (0 no effect, 100 complete control), approx. 10 d, read-out: Ragweed plant response rating) | pest or weed control at 31 g/ha ([20]; Postemergence, 31 g ai/ha, visual injury after approx. 10 d, 0 to 100 scale, 0 no effect, 100 complete control, read-out: Plant response rating, Ragweed)
20%: pest or weed control at 250 g/ha [2] | pest or weed control at 31 g/ha ([5]; 31 g ai/ha, Preemergence) | pest or weed control at 31 g/ha ([14]; Postemergence, 31 g ai/ha, visual injury after approx. 10 d, 0 to 100 scale, 0 no effect, 100 complete control, read-out: Plant response rating, Barnyardgrass)
60%: pest or weed control at 125 g/ha [10, 21] | pest or weed control at 125 g/ha ([14]; 125 g ai/ha, postemergence, visual injury on 0 to 100 scale (0 no effect, 100 complete control), approx. 10 d, read-out: Barnyardgrass plant response rating)
50%: pest or weed control at 125 g/ha ([15]; 125 g ai/ha, postemergence, visual injury on 0 to 100 scale (0 no effect, 100 complete control), approx. 10 d, read-out: Blackgrass plant response rating) | pest or weed control at 125 g/ha ([18]; 125 g ai/ha, postemergence, visual injury on 0 to 100 scale (0 no effect, 100 complete control), approx. 10 d, read-out: Galium plant response rating)
70%: pest or weed control at 125 g/ha [5, 21] | pest or weed control at 125 g/ha [6, 21]
90%: pest or weed control at 31 g/ha ([9]; 31 g ai/ha, 0 to 100 scale where 0 is no effect and 100 is complete control, read-out: Foxtail, Giant plant response rating) | pest or weed control at 125 g/ha ([19]; 125 g ai/ha, postemergence, visual injury on 0 to 100 scale (0 no effect, 100 complete control), approx. 10 d, read-out: Foxtail, Giant plant response rating)
30%: pest or weed control at 31 g/ha ([7]; 31 g ai/ha, 0 to 100 scale where 0 is no effect and 100 is complete control, read-out: Barnyardgrass plant response rating) | pest or weed control at 125 g/ha ([13]; 125 g ai/ha, postemergence, visual injury on 0 to 100 scale (0 no effect, 100 complete control), approx. 10 d, read-out: Kochia plant response rating) | pest or weed control at 31 g/ha ([19]; Postemergence, 31 g ai/ha, visual injury after approx. 10 d, 0 to 100 scale, 0 no effect, 100 complete control, read-out: Plant response rating, Foxtail, Giant)
40%: plant injury at 125 g/ha ([17]; 125 g ai/ha, postemergence, visual injury on 0 to 100 scale (0 no effect, 100 complete control), approx. 10 d, read-out: Wheat plant response rating)
85%: pest or weed control at 250 g/ha [4]
100%: pest or weed control at 125 g/ha ([7]; 125 g ai/ha, visual injury rating after approximately 10 d, read-out: Barnyardgrass plant response rating (0 to 100 scale, 0 is no effect, 100 is complete control)) | pest or weed control at 125 g/ha ([9]; 125 g ai/ha, visual injury rating after approximately 10 d, read-out: Foxtail, Giant plant response rating (0 to 100 scale, 0 is no effect, 100 is complete control))
